Data reported in PubChem BioAssay (NCI).
Values joined by “and” are separate entries in the source; they are usually repeats but may differ in a detail not shown here. Identical values can stand only once.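 Step 1: Grow cells in 96-well plates. Step 2: Expose to compound for 48 hours at 5 concentrations. Step 3: Interpolate endpoints linearly; if unreached, use highest concentration. GI50 = concentration required for 50% inhibition of growth. The concentration for full growth arrest is given as TGI.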

How the values were obtained:
Experiment in all cases: NCI-60 cell line screen, 48 h
[1] = test system: SF-539 CNS
[2] = test system: SN12C renal
[3] = test system: PC-3 prostate
[4] = test system: MOLT-4 leukemia
[5] = test system: NCI-H226 lung
[6] = test system: CAKI-1 renal
[7] = test system: SK-MEL-5 melanoma
[8] = test system: HCT-15 colon
[9] = test system: U251 CNS
[10] = test system: NCI-H23 lung

| SMILES | GI50 [1] [µM] | TGI [1] | GI50 [2] [µM] | TGI [2] | GI50 [3] [µM] | TGI [3] [µM] | GI50 [4] [µM] | TGI [4] | GI50 [5] [µM] | TGI [5] [µM] | GI50 [6] [µM] | TGI [6] | GI50 [7] [µM] | TGI [7] | GI50 [8] [µM] | TGI [8] [µM] | GI50 [9] [µM] | TGI [9] [µM] | GI50 [10] [µM] | TGI [10] |
| --- | --- | --- | --- | --- | --- | --- | --- | --- | --- | --- | --- | --- | --- | --- | --- | --- | --- | --- | --- | --- |
| c1ccc(Oc2cnc3ccccc3n2)cc1 | 92.3 | > 100 µM | > 100 | > 100 µM | > 100 | > 100 | 36.3 | > 100 µM | 28.1 | > 100 | 10.2 | 50 µM | 46.3 | > 100 µM | > 100 | > 100 | > 100 | > 100 | > 100 | > 100 µM |
| COc1ccc(-n2cc(-c3ccc(F)cc3)[nH]c2=O)cc1OC | 82.2 | > 100 µM | 58 | > 100 µM | > 100 | > 100 | > 100 | > 100 µM | > 100 | > 100 | > 100 | > 100 µM | > 100 | > 100 µM | > 100 | > 100 | > 100 | > 100 | > 100 | > 100 µM |
| O=c1c(Br)ccc(Br)cc1Br | 1.92 | 4.52 µM | 2.11 | 4.68 µM | 1.85 | 3.95 | 0.41 | 1.86 µM | 2.94 | 9.7 | 1.7 | 3.32 µM | 3.19 | 10.9 µM | 0.752 | 2.48 | 1.84 | 3.34 | 1.72 | 3.66 µM |
| CCCCCCOc1ccc(/C=N/Nc2cc(C)nc3ccc(Br)cc23)cc1 | 1.87 | 3.29 µM | 1.69 | 3.17 µM | 1.65 | 3.23 | 1.2 | 3.18 µM | 1.6 | 3.16 | 1.66 | 3.04 µM | 1.67 | 3.04 µM | 1.52 | 2.88 | 1.87 | 3.36 | 1.78 | 3.43 µM |
| COc1nc(C(Cl)(Cl)Cl)c(Cl)c(OC)c1Cl | > 52 | > 86.8 µM and 77.2 µM |  | > 52.9 µM and 74 µM |  | 73.6 | > 44.9 | > 67.4 µM and 62.3 µM |  | 71.5 | > 46 | > 72.9 µM and 74.6 µM | 19.6 | 34.5 µM and 83.2 µM |  | 75.6 |  | 69.9 | > 31.6 | > 31.6 µM and 79.4 µM |
| O=c1c(-c2nc3ccccc3[nH]2)cc2ccccc2n1Cc1cn(Cc2ccc(F)cc2)nn1 | 0.137 | 0.636 µM | 0.203 | > 100 µM | 0.153 | > 100 | 0.233 | > 100 µM | 0.572 | > 100 | 0.246 | > 100 µM | 0.164 | > 85.7 µM | 0.399 | > 50.9 | 0.161 | 12.4 | 0.457 | 19 µM |
| COc1cc(-c2cc(C(=O)N3CCN(C(=O)c4ccccc4NCc4cccs4)CC3)nc3cc(-c4ccccc4)nn23)cc(OC)c1OC | 9.85 | > 100 µM | 29.1 | > 100 µM | 4.18 | > 100 | 43.7 | > 100 µM | 6.39 | > 100 | 2.78 | 8.33 µM | 2.85 | 11.5 µM | 4.43 | > 100 | 5.76 | > 100 | 15.7 | > 100 µM |
| COc1ccc2nc3c(cc2c1)C(=O)CC(C(F)(F)F)C3 (centres undefined) | 1.74 | 5.64 µM | 0.805 | > 100 µM | 1.08 | > 100 | 0.108 | > 100 µM | 3.28 | > 100 | 0.639 | > 100 µM | 0.545 | 9.75 µM | 1.28 | > 100 | 5.82 | > 100 | 5.39 | > 100 µM |
| CC(=O)SC(C[N+](=O)[O-])c1ccccc1 (centres undefined) |  | 5.26 µM |  | 27.3 µM |  | 25.7 |  | 5.36 µM |  | 5.72 |  | 29.3 µM |  | 8.77 µM |  | 4.85 |  | 13.1 |  | 38.3 µM |
| NC1=C(O)/C(=N/NS(=O)(=O)c2ccccc2)C(c2cccc(Cl)c2)O1 (centres undefined) |  | > 81.8 µM |  | > 67.2 µM |  | 54.2 |  | 19.1 µM |  | > 90.9 |  | > 58.4 µM |  | > 100 µM |  | 27 |  | 55.7 |  | 73.5 µM |
| COc1cccc(-c2nn(C)c3sc(C(=O)NCCN4CCN(c5ccccc5F)CC4)cc23)c1 | 9.45 | > 100 µM | 79.5 | > 100 µM | 11.5 | > 100 | 5.15 | > 100 µM | 31.3 | > 100 | 9.02 | 91.5 µM | 6.38 | 26.2 µM | 3.18 | 15.5 | 7.14 | 59.5 | 34.5 | > 100 µM |
| C/C(=N\O)c1ccc(Nc2cc(-c3ccccc3)nc3c(O)cccc23)cc1 | 15.3 | 29.6 µM | 11.9 | 27.6 µM | 17.1 | 41.9 |  |  | 14.7 | 31.8 | 10.2 | 35 µM |  |  | 4.75 | 26.4 | 11.8 | 38.6 | 17 | 49.5 µM |
| O=C1/C=C/[C@@H](O)[C@@H]2C[C@@H](O)C[C@H]2/C=C/CCCCO1 | 0.383 | > 100 µM | 0.954 | > 100 µM | 0.417 | > 100 | 1.4 |  | 0.224 |  | 0.785 |  | 0.157 | 0.295 µM | 0.364 |  | 0.408 | > 100 | 0.488 | 63.1 µM |
| C=CCOc1ccc2c(c1)CC[C@@H]1[C@@H]2CC[C@]2(C)C(=O)/C(=N/O)C[C@@H]12 | 15.8 | > 50.1 µM | 4.01 | > 44.2 µM | 3.6 | 18.8 | 2.44 | 6.92 µM | 5.06 | 21.7 | 1.9 | > 100 µM | 11.6 | 25.7 µM | 2.05 | 7.06 | 9.8 | > 51 | 10.1 | 52.8 µM |
| Cn1cc(C2=C(c3cn(CCCN/C(N)=N\[N+](=O)[O-])c4ccccc34)C(=O)NC2=O)c2ccccc21 | 0.968 | 5.11 µM | 2.65 | 16.6 µM | 3.36 | 17.2 | 2.25 | > 16.4 µM | 4.56 | > 19.1 | 8.06 | > 25 µM | 2.33 | 7.37 µM | 19.8 | > 25 | 2.05 | 15.4 | 5.13 | 15.9 µM |
| O=C1COCCN1c1ccc(NCc2cn(Cc3ccc(F)cc3)c3ccccc23)cc1 | 7.36 | 33.1 µM | 4.08 | > 83.7 µM | 8.68 | 45.2 | 11.6 | > 68.9 µM | 0.0593 | 0.275 | 0.0252 | 0.418 µM | 2.6 | 11.2 µM | 4.13 | 31 | 0.645 | 38.5 | 2.64 | 32.1 µM |
| Cc1cccc(C)c1NC(=O)/C(CC(=O)CC(c1ccccc1)c1c(O)c2ccccc2oc1=O)=N/O (centres undefined) |  | > 100 µM |  | > 100 µM |  | > 100 |  | > 100 µM |  | > 100 |  | > 100 µM |  | > 100 µM |  | > 100 |  | > 100 |  | > 100 µM |
| COc1cc(-c2nc3cc(Cl)c(Cl)cc3[nH]2)ccc1OCC(=O)N=Nc1c(O)[nH]c2ccccc12 | 1.08 | 2.29 µM | 0.506 | 1.8 µM | 0.533 | 2.07 |  |  | 1.04 | 2.67 | 1.45 | 2.94 µM | 0.541 | 1.76 µM |  | > 56.5 | 0.244 | 0.681 | 0.287 | 0.938 µM |
| Nc1nc(-c2ccccc2Cl)cc(-c2ccc(Cl)cc2Cl)n1 | 7.39 | 67 µM | 13.1 | > 100 µM | 5.43 | > 100 | 4.82 | > 100 µM | 18.1 | > 100 | 9.27 | > 100 µM | 4.78 | 20.8 µM | 5.09 | > 100 | 11.1 | > 100 | 12.3 | > 100 µM |
| CCCCCC(=O)OC[n+]1ccc(-c2c(COC(=O)NC(C)C)c(COC(=O)NC(C)C)c3n2CCC3)cc1 |  | > 100 µM |  | > 100 µM |  | > 100 |  | > 100 µM |  | > 100 |  | > 100 µM |  | > 100 µM |  | > 100 |  | > 100 |  | > 100 µM |
| CCOc1ccc(-n2cc(-c3ccc(N(C)C)cc3)[n+]3c2CCCCC3)cc1 | 2.26 | > 100 µM | 0.891 | 19 µM | 0.277 | > 100 | 1 | 26.5 µM | 1.56 | > 100 | 10.4 | > 100 µM | 0.0958 | 0.475 µM | 10.1 | > 100 | 0.312 | > 100 | 0.0935 | > 43 µM |
| COc1ccc(/C=C2\CCC(CN(C)C)C2=O)cc1 (centres undefined) |  | 16 µM |  | 32.8 µM |  | 19.6 |  | 6.85 µM |  | 31.6 |  | 5.05 µM |  | 16.3 µM |  | 6.49 |  | 32.7 |  | 18.3 µM |
| Nc1c(S(=O)(=O)O)cc2c(c1Cl)C(=O)c1ccccc1C2=O | > 100 | > 100 µM | > 100 | > 100 µM | > 100 | > 100 | > 100 | > 100 µM | > 100 | > 100 | > 100 | > 100 µM | > 100 | > 100 µM | > 100 | > 100 | > 100 | > 100 | > 100 | > 100 µM |
| COc1ccc(/C=N/C2=C(C#N)C(c3ccccc3)c3ccc4ccccc4c3O2)cc1 (centres undefined) | 0.244 | 1.05 µM | 0.68 | > 100 µM | 0.393 | > 100 | 0.516 | > 100 µM | 2.08 | > 100 | 0.224 | > 61.8 µM | 0.336 | 7.95 µM | 0.509 | > 100 | 0.457 | > 100 | 0.469 | > 100 µM |
| O=C(Nc1ccc(-n2cc(-c3ccncc3)c(-c3ccc(Cl)c(O)c3)n2)cc1)c1ccc(Cl)c(C(F)(F)F)c1 | 0.65 | 2.99 µM | 4.39 | > 83.6 µM | 1.15 | 30.8 | 0.652 | > 29.3 µM | 16.3 | > 71 | 1.7 | 3.8 µM | 0.6 | 1.64 µM | 0.444 | 2.58 | 0.895 | 2.91 | 1.72 | 5.08 µM |
| COc1ccc(/C=C/c2cnnc3ccccc23)cc1OC |  | > 10 µM |  | > 10 µM |  | > 10 |  | > 10 µM |  | > 10 |  | > 10 µM |  | > 10 µM |  | > 10 |  | > 10 |  | > 10 µM |
| COc1cc2c(cc1OC)-c1c(c3ccc([N+](=O)[O-])cc3c(=O)n1CCCBr)C2=O | 10.4 | > 100 µM | 4.31 | > 100 µM | 59 | > 100 | 0.461 | > 100 µM | 22.7 | 85.1 | 0.513 | > 100 µM | 1.72 | 23.7 µM | 61.8 | > 100 | 5.14 | > 100 | 3.32 | 67.5 µM |
